This note sets out measurements from BindingDB's records for doi:10.1021/jm00214a010 (1977).

For this assay, the target named is T1, Aminopeptidase B (Rattus norvegicus, UniProt O09175).
T1 sequence (O09175 whole entry): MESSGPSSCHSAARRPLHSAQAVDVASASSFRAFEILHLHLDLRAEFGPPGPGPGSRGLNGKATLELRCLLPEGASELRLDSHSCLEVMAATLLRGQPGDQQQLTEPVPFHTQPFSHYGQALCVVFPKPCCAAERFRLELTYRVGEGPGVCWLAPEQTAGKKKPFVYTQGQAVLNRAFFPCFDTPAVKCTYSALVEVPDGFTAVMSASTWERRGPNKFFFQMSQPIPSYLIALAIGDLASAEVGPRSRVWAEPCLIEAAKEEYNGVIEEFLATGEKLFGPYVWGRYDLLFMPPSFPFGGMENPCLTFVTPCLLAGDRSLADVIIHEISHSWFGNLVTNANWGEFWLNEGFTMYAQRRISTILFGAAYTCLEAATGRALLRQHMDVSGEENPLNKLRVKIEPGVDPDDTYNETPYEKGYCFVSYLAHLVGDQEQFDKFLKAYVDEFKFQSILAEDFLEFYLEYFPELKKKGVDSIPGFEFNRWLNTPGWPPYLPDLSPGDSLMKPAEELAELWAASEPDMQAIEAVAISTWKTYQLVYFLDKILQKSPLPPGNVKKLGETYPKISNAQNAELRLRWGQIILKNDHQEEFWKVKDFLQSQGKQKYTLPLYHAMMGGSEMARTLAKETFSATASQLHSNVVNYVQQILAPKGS
Kind of assay: Inhibition of rat liver aminopeptidase B using 0.2 mM […] by colorimetry.

One may read the IC50 as the concentration that gives 50% inhibition. A high value points to weaker potency in that assay. For `CC(C)CCNC(=O)[C@@H](O)[C@H](N)Cc1ccccc1`, half-maximal inhibition (IC50) was put at 640 µM.
